Reference: patent publication US11446393B2, “Non-viral gene delivery agent comprising lipopeptide (LP) compounds” (MONASH UNIVERSITY, priority 2017, dated 2022)
Peptide text beside a SMILES is read from it. * marks the point of attachment. Stearoyl = CCCCCCCCCCCCCCCCCC(=O)*

Tested on: plasmid DNA
Assay: Dye exclusion assay (SYBR Gold) of DNA condensation by lipopeptide
Format: physicochemical
Settings: charge ratio 2.5:1; n=3, p<0.05; data not shown
Experimental: To determine the charge ratio at which the LP effectively condenses the DNA, a dye exclusion assay was carried out. In a 96-well black-bottomed plate, plasmid DNA (20 μg/mL) was prepared in 12 mM Tris-HCl (pH 7.4) buffer. To each well containing DNA, 0.05 μL of 10,000× concentrated stock of intercalating SYBR® Gold (Thermo Fisher Scientific) was added and the plate was incubated at room temperature for 15 minutes. The LP was then added to the wells at a series of charge ratios from 0.5:1 to 5:1. A well containing 20 μg/mL of naked DNA and SYBR® Gold was used as a 100% fluorescence intensity standard (ie no LP added). A blank well containing only the SYBR® Gold in buffer was used to subtract from the fluorescent readings of each sample. The plate was incubated at room temperature for 30 minutes for particle formation. The fluorescence (excitation 492 nm, emission 540 nm) of each sample was measured using a Wallac Envision 2102 Multilabel Reader (PerkinElmer, Waltham, Mass., United States of America).

CCCCCCCCCCCCCCCCCC(=O)NC(CS)C(=O)NC(Cc1cnc[nH]1)C(=O)NC(Cc1cnc[nH]1)C(=O)NC(CCCCN)C(=O)NC(CCCCN)C(=O)NC(CCCCN)C(=O)O (stereo not drawn) [stearoyl-CH2K3, stearoyl-Cys-His-His-Lys-Lys-Lys] (Stearoyl-CHHKKK-OH; configuration not given here)
Fluorescence of LP/DNA particles after addition of dithiothreitol (DTT) to the LP before complexation: significantly increased the degree of fluorescence
